In ChEMBL document CHEMBL4831556, “Discovery of a Novel Potent and Selective Calcium Release-Activated Calcium Channel Inhibitor: 2,6-Difluoro-N-(2'-methyl-3'-(4-methyl-5-oxo-4,5-dihydro-1,3,4-oxadiazol-2-yl)-[1,1'-biphenyl]-4-yl)benzamide. Structure-Activity Relationship and Preclinical Characterization” (J Med Chem, 2021):

Legend:
[1] = Tmax in BALB/c mouse model of mBSA-induced delayed type hypersensitivity at 3 mg/kg, po administered twice daily for 7 days followed by mBSA challenge and measured after 24 hrs; type: ADME, organism-based; details: in vivo, time 8 day
[2] = Cmax in BALB/c mouse model of mBSA-induced delayed type hypersensitivity at 3 mg/kg, po administered twice daily for 7 days followed by mBSA challenge and measured after 24 hrs; type: ADME, organism-based; set-up: route oral, time 8 day, dose 3 mg/kg; details: in vivo
[3] = Tmax in CFA-induced rheumatoid arthritis Lewis rat model at 0.3 mg/kg, po administered once daily for 15 days; type: ADME, organism-based; details: in vivo, time 15 day
[4] = Tmax in CFA-induced rheumatoid arthritis Lewis rat model at 1 mg/kg, po administered once daily for 15 days; type: ADME, organism-based; details: in vivo, time 15 day
[5] = Cmax in CFA-induced rheumatoid arthritis Lewis rat model at 0.3 mg/kg, po administered once daily for 15 days; type: ADME, organism-based; set-up: route oral, dose 0.3 mg/kg, time 15 day; details: in vivo
[6] = AUClast in CFA-induced rheumatoid arthritis Lewis rat model at 0.3 mg/kg, po administered once daily for 15 days; type: ADME, organism-based; set-up: route oral, time 15 day, dose 0.3 mg/kg; details: in vivo
[7] = AUClast in collagen-induced rheumatoid arthritis DBA/1J mouse model at 3 mg/kg, po administered twice daily for 15 days; type: ADME, organism-based; set-up: route oral, dose 3 mg/kg, time 15 day; details: in vivo
[8] = Toxicity in mouse assessed as maximum tolerated dose; details: in vivo
[9] = AUC(0 to t) in rat at 60 mg/kg/day after 2 weeks; type: ADME, organism-based; set-up: dose 60 mg/kg/day, time 2 weeks; details: in vivo
[10] = Cmax in rat at 60 mg/kg/day after 13 weeks; type: ADME, organism-based; set-up: time 13 weeks, dose 60 mg/kg/day; details: in vivo
[11] = biological target: Tumor necrosis factor (Homo sapiens, UniProt P01375); test: Inhibition of TNF-alpha in thapsigargin stimulated human whole blood; type: tissue-based
Sequence of Tumor necrosis factor (P01375 whole entry): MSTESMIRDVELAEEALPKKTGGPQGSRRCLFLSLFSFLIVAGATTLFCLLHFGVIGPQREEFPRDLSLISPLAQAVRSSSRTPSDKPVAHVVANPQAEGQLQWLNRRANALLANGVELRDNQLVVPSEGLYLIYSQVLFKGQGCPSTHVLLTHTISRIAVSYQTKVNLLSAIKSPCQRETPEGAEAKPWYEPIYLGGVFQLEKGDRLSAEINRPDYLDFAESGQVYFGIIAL

[12] = Trough concentration in human whole blood at 160 mg, qd; type: ADME, tissue-based; details: read-out: Cmin
[13] = Cmax in human whole blood at 80 mg, qd; type: ADME, tissue-based; set-up: dose 80 mg
[14] = Trough concentration in human whole blood at 80 mg, qd; type: ADME, tissue-based; details: read-out: Cmin
[15] = Half life in Lewis rat at 10 mg/kg, po measured upto 24 hrs by LC-MS/MS analysis; type: ADME, organism-based; details: in vivo

half-life [15] | SMILES | Tmax [1] | Cmax [2] | Tmax [3] | Tmax [4] | Cmax [5] | AUC(0-t) at 360 h [6] | AUC(0-t) at 360 h [7] | MTD [8] | AUC(0-t) at 336 h [9] | Cmax [10] | IC50 [11] | concentration [12] | Cmax [13] | concentration [14]
 | Cc1c(-c2ccc(NC(=O)c3c(F)cccc3F)cc2)cccc1-c1nn(C)c(=O)o1 | 2 h | 1600 nM | 2 h | 2 h | 600 nM | 10 µM·h | 12 µM·h | 2000 mg/kg | 76700 ng·h/mL | 4680 ng/mL | 694 nM | 403 nM | 950 nM | 185 nM
16 h | Cc1c(-c2ccc(NC(=O)c3c(F)cccc3Cl)cc2)cccc1-c1nn(C)c(=O)o1 |  |  |  |  |  |  |  |  |  |  |  |  |  | 
